# Measured values taken from PMC10787893, “Expression and characterization of the new antimicrobial peptide AP138L-arg26 anti Staphylococcus aureus” (Applied Microbiology and Biotechnology, 2024).
# Bridge positions count the residues as written; N and C are the ends. Peptide text beside a SMILES is read from it.
# Key:
# [1] = test system: Staphylococcus aureus ATCC 25923; experiment: MIC and MBC, broth microdilution; format: cell-based
# Description: (§1) To determine the MIC values of AP138L-arg26, we used the broth microdilution technique as previously described (Andrews. [2001]; Wiegand et al. [2008]). In brief, AP138L-arg26 peptide were diluted from 1280 to 2.5 µg/mL and added to a 96-cells plate with 10 µL per well. The bacteria in the logarithmic stage were diluted to 10^5 CFU/mL with 90 µL per well. […] The MBC method was also based on the CLSI 2021 guidelines.
# [2] = test system: Staphylococcus aureus ATCC 43300; experiment: MIC and MBC, broth microdilution; format: cell-based
# Description: as §1
# [3] = test system: Staphylococcus aureus CAAS-FRI-2023-01; experiment: MIC and MBC, broth microdilution; format: cell-based
# Description: as §1
# [4] = test system: Staphylococcus aureus CAAS-FRI-2023-02; experiment: MIC and MBC, broth microdilution; format: cell-based
# Description: as §1
# [5] = test system: Staphylococcus aureus CVCC 546; experiment: MIC and MBC, broth microdilution; format: cell-based
# Description: as §1
# [6] = test system: Staphylococcus aureus E48; experiment: MIC and MBC, broth microdilution; format: cell-based
# Description: as §1
# [7] = test system: Staphylococcus epidermidis ATCC 12228; experiment: MIC and MBC, broth microdilution; format: cell-based
# Description: as §1
# [8] = test system: Staphylococcus epidermidis ATCC 35984; experiment: MIC and MBC, broth microdilution; format: cell-based
# Description: as §1
# [9] = test system: Streptococcus agalactiae ATCC 13813; experiment: MIC and MBC, broth microdilution; format: cell-based
# Description: as §1
# [10] = test system: Streptococcus agalactiae CAU-FRI-2022-01; experiment: MIC and MBC, broth microdilution; format: cell-based
# Description: as §1
# [11] = test system: Streptococcus agalactiae CAU-FRI-2022-02; experiment: MIC and MBC, broth microdilution; format: cell-based
# Description: as §1
# [12] = test system: Streptococcus dysgalactiae CVCC 3938; experiment: MIC and MBC, broth microdilution; format: cell-based
# Description: as §1
# S. aureus CVCC 546 [13] = experiment: Serum stability, MIC after treatment; format: in vitro ADME, Staphylococcus aureus; conditions: then MIC
# Text: Table 4 The stability of AMPs in different environments | column: MIC
# [14] = test system: mouse macrophages RAW264.7; experiment: Cytotoxicity, MTT method; format: cell-based; conditions: 256 µg/mL; RAW264.7, MTT
# Text: The cytotoxicity of AP138L-arg26 to mouse macrophages RAW264.7 was detected by the thiazolyl blue tetrazolium bromide (MTT) method as described previously (Shen et al. [2021]).
# S. aureus CVCC 546 [15] = experiment: Potassium ion (K+) leakage, ICP-MS; format: cell-based, Staphylococcus aureus
# Text: The integrity effect of antimicrobial peptide AP138L-arg26 on bacterial cell membranes was further verified, and the K^+ leakage assay was previously described (Li et al. [2020]). Briefly, the main procedures were as follows: Firstly, prepare the S. aureus CVCC 546 bacteria suspension at a concentration of 1 × 10^8 CFU/mL. […] Finally, the supernatants were detected using inductively coupled plasma mass spectrometry (ICP-MS) (SantaClara, CA, USA).
# S. aureus [16] = experiment: Membrane fluidity assay, Laurdan GP; format: cell-based, Staphylococcus aureus; conditions: 2 × MIC; 10 µM Laurdan; untreated 0.22
# Description: The final concentration of 10 µM Laurdan was used to detect the effect of AP138L-arg26 on bacterial cell membrane fluidity (Shi et al. [2022]). Briefly, (1) co-incubation of bacteria with Laurdan; (2) the stained bacteria are co-incubated with the peptide; (3) spectrophotometer (Tecan, Männedorf, Switzerland) detection. The calculation formula: generalized polarization (GP) = (I435 − I490)/(I435 + I490).
# S. aureus [17] = experiment: Intracellular LDH activity; format: cell-based, Staphylococcus aureus; conditions: 6 h, treated cells/the control, n = 3
# Description: As disruption of the cell membrane structure leads to the release of LDH from the cytoplasm into the culture medium, the detection of LDH in bacteria can further reveal the antibacterial mechanism (Shi et al. [2022]). Briefly, S. aureus cells were co-incubated with AP138L-arg26 for 6 h. Later, the pellets were collected and sonicated (3 s/10 s, 30 times). The intracellular LDH activity was detected using an Infinite M200 Microplate reader (Tecan, Luminescence signals). The calculated results of LDH% = treated cells/the control.
# [18] = 99.99% of bacteria killed, plated on MHA
# [19] = broth microdilution, 10^5 CFU/mL, 37 °C, 18 h
smiles,measurement,setting,value
"CC[C@H](C)[C@@H]1NC(=O)[C@H](CO)NC(=O)[C@H](CCCCN)NC(=O)[C@@H]2CSSC[C@@H](C(=O)N[C@@H](Cc3ccc(O)cc3)C(=O)O)NC(=O)[C@H](CCCCN)NC(=O)[C@@H]3CSSC[C@H](NC(=O)[C@H](CCCNC(=N)N)NC(=O)[C@H](CC(C)C)NC(=O)[C@H](CC(=O)O)NC(=O)[C@H](CC(=O)O)NC(=O)[C@H](CCC(=O)O)NC(=O)[C@H](CO)NC(=O)[C@H](Cc4c[nH]c5ccccc45)NC(=O)[C@@H]4CCCN4C(=O)CNC(=O)[C@H](CC(N)=O)NC(=O)[C@@H](NC(=O)CNC(=O)[C@H](Cc4ccccc4)NC(=O)CN)CSSC[C@H](NC(=O)[C@H](Cc4ccc(O)cc4)NC(=O)CNC(=O)CNC(=O)[C@H](CCCNC(=N)N)NC(=O)[C@H](Cc4ccc(O)cc4)NC(=O)CNC(=O)[C@H](CCCCN)NC1=O)C(=O)N[C@@H](C)C(=O)N[C@@H](CCCCN)C(=O)NCC(=O)NCC(=O)N[C@@H](Cc1ccccc1)C(=O)N[C@@H](C(C)C)C(=O)N3)C(=O)N[C@@H](Cc1c[nH]cn1)C(=O)N[C@@H](CCCNC(=N)N)C(=O)N[C@@H](Cc1c[nH]cn1)C(=O)N2 [AP138L-arg26] (H-GFGCNGPWSEDDLRCHRHCKSIKGYRGGYCAKGGFVCKCY-OH; disulfide 4-30, 15-37, 19-39; N-terminus and C-terminus assumed)",MBC,[1]; [18],32 mg/L
same,MIC,[1]; [19],16 mg/L
same,MBC,[2]; [18],8 mg/L
same,MIC,[2]; [19],8 mg/L
same,MBC,[3]; [18],16 mg/L
same,MIC,[3]; [19],4 mg/L
same,MBC,[4]; [18],32 mg/L
same,MIC,[4]; [19],8 mg/L
same,MBC,[5]; [18],32 mg/L
same,MIC,[5]; [19],4 mg/L
same,MBC,[6]; [18],8 mg/L
same,MIC,[6]; [19],2 mg/L
same,MBC,[7]; [18],16 mg/L
same,MIC,[7]; [19],4 mg/L
same,MBC,[8]; [18],16 mg/L
same,MIC,[8]; [19],8 mg/L
same,MBC,[9]; [18],8 mg/L
same,MIC,[9]; [19],4 mg/L
same,MBC,[10]; [18],32 mg/L
same,MIC,[10]; [19],4 mg/L
same,MBC,[11]; [18],32 mg/L
same,MIC,[11]; [19],4 mg/L
same,MBC,[12]; [18],32 mg/L
same,MIC,[12]; [19],4 mg/L
same,"MIC, 25% serum (0.5 h)",S. aureus CVCC 546 [13]; peptide in 25% serum for 0.5 h,8 mg/L
same,"MIC, 25% serum (1 h)",S. aureus CVCC 546 [13]; peptide in 25% serum for 1 h,16 mg/L
same,"MIC, 25% serum (2 h)",S. aureus CVCC 546 [13]; peptide in 25% serum for 2 h,16 mg/L
same,"MIC, 25% serum (4 h)",S. aureus CVCC 546 [13]; peptide in 25% serum for 4 h,8 mg/L
same,"MIC, 25% serum (6 h)",S. aureus CVCC 546 [13]; peptide in 25% serum for 6 h,16 mg/L
same,"MIC, 25% serum (8 h)",S. aureus CVCC 546 [13]; peptide in 25% serum for 8 h,8 mg/L
same,"MIC, 50% serum (0.5 h)",S. aureus CVCC 546 [13]; peptide in 50% serum for 0.5 h,8 mg/L
same,"MIC, 50% serum (1 h)",S. aureus CVCC 546 [13]; peptide in 50% serum for 1 h,8 mg/L
same,"MIC, 50% serum (2 h)",S. aureus CVCC 546 [13]; peptide in 50% serum for 2 h,8 mg/L
same,"MIC, 50% serum (4 h)",S. aureus CVCC 546 [13]; peptide in 50% serum for 4 h,8 mg/L
same,"MIC, 50% serum (6 h)",S. aureus CVCC 546 [13]; peptide in 50% serum for 6 h,8 mg/L
same,"MIC, 50% serum (8 h)",S. aureus CVCC 546 [13]; peptide in 50% serum for 8 h,8 mg/L
same,cell viability,[14],over 75%
same,extracellular K+ leakage level,"S. aureus CVCC 546 [15]; 2 × MIC, 37 °C, 1 × 10^8 CFU/mL, ICP-MS, untreated 0.02 mg/L",0.05 mg/L
same,intracellular potassium leakage relative to control,S. aureus CVCC 546 [15]; as given in the abstract,2.5 fold
same,Laurdan GP,S. aureus [16],0.18
same,LDH activity %,S. aureus [17]; 1 × MIC,24%
same,LDH activity %,S. aureus [17]; 2 × MIC,16%
same,LDH activity %,S. aureus [17]; 4 × MIC,16%
